Here are results for 4 compounds from patent US8530381B2, “Active compound combinations” (Bayer CropScience AG, priority 2009, dated 2013).

In one experiment the test system is Pyrenophora teres. Kind of experiment: Pyrenophora teres-test (barley)/preventive. In kind it is in vivo. The conditions noted are these: preventive spray, evaluated 8 days after inoculation. Here is the method:
(§1) Here, the efficacy is determined in %. 0% means an efficacy which corresponds to that of the control, whereas an efficacy of 100% means that no infection is observed.
(§2) If the actual fungicidal action exceeds the calculated value, the action of the combination is superadditive, i.e. a synergistic effect is present. In this case, the actually observed efficacy must exceed the value calculated using the above formula for the expected efficacy (E).
Pyrenophora teres-Test (Barley)/Preventive
(§3) Solvent: 49 parts by weight of n,n-dimethylacetamid
(§4) Emulsifier: 1 part by weight of alkylaryl polyglycol ether
(§5) To produce a suitable preparation of active compound, 1 part by weight of active compound or active compound combination is mixed with the stated amounts of solvent and emulsifier, and the concentrate is diluted with water to the desired concentration.
(§6) To test for preventive activity, young plants are sprayed with the preparation of active compound or active compound combination at the stated rate of application.
After the spray coating has been dried, the plants are sprayed with a spore suspension of Pyrenophora teres. The plants remain for 48 hours in an incubation cabinet at approximately 20° C. and a relative atmospheric humidity of approximately 100%. […]
The test is evaluated 8 days after the inoculation. […]

In experiment [1] the test system is Blumeria graminis f.sp. hordei. As to the kind of experiment: Blumeria-test (barley)/preventive. The conditions noted are these: preventive spray, application rate 62,5 g/ha, evaluated 7 days after inoculation. In kind it is in vivo. Here is the method: as §1, §2
Blumeria Test (Barley)/Preventive
as §3, §4, §5, §6
After the spray coating has been dried, the plants are dusted with spores of Blumeria graminis f.sp. hordei.
The plants are placed in the greenhouse at a temperature of approximately 18° C. and a relative atmospheric humidity of approximately 80% to promote the development of mildew pustules.
The test is evaluated 7 days after the inoculation. 0% means an efficacy which corresponds to that of the control, while an efficacy of 100% means that no disease is observed.

Each structure is given as a SMILES string.

Take `OC(Cc1ccccc1Cl)(Cn1nc[nH]c1=S)C1(Cl)CC1` (centres unmarked) [1.41, prothioconazole]: the “Efficacy in % found” value in the experiment on Pyrenophora teres (application rate 125 g/ha) stood at 70%.

For the compound `Cn1cc(C(=O)Nc2ccc(F)cc2-c2ccc(Cl)c(Cl)c2)c(C(F)F)n1` [2.2, bixafen], the “Efficacy in % found” value in experiment [1] was found to be 10%.

For the compound `CO/N=C(/C(=O)OC)c1ccccc1CO/N=C(\C)c1cccc(C(F)(F)F)c1` [3.17, trifloxystrobin], the “Efficacy in % found” value in experiment [1] is reported as 80%.

In the case of `CCN(C)/C=N/c1cc(C)c(Oc2nc(Cc3ccc(Cl)cc3)ns2)cc1C` [I-a], the “Efficacy in % found” value (in the experiment with Pyrenophora teres (application rate 62,5 g/ha); in experiment [1]) was 40% each time.
